Like-named read-outs stand apart in the source and are kept apart here.
What was measured:
[1] = system: RA sensitive reporter construct pCYP26A1-luc in MCF-7 cells; test: Retinoid activity assay, RA sensitive pCYP26A1-luc reporter in MCF-7 cells; type: cell-based; conditions: 24 hours, firefly relative to Renilla luciferase
Source text: This retinoid activity assay measures the ability of test compounds to induce expression of a transiently transfected RA sensitive reporter construct. In this assay, MCF-7 cells are transfected with a construct comprising an upstream promoter of the CYP26A1 gene containing 2 RA response elements driving expression of firefly luciferase (pCYP26A1-luc). Since CYP26A1 is highly inducible by RA in these cells, this construct serves as a sensitive reporter of retinoid-like transcriptional activity.
MCF-7 cells were maintained in RPMI-1640 medium containing 10% FBS. Exponentially growing cells were harvested by incubation in trypsin. Cells were then collected and plated in 24-well plates at 50,000 cells/well. Once cells reached 80-90% confluence (e.g., the next day), cells were transfected with two plasmids. The first plasmid was CYP26A1-luc construct (375 ng). The second plasmid was a control plasmid comprising the Renilla luciferase gene driven by constitutive thymidine kinase promoter (pRL-tk) (25 ng). Transfection was performed using FuGene 6 transfection reagent (Promega) with a 1:3 ratio of DNA:FuGene. 24 hours after transfection, cells were treated with test compounds diluted in DMSO in triplicate at 0.1, 1 and 10 μM final concentrations. As a positive control for reporter activation, cells were also treated with RA diluted in DMSO at the same concentrations listed above. DMSO treatment alone served as a negative control. After 24 hours of treatment, cells were harvested in passive lysis buffer (Promega) and luciferase activity in cell lysates were read using a luminometer. Data are expressed as the activity of firefly luciferase relative to Renilla luciferase (see Table 3). For CYP26A1 inhibitor compounds, no activation of the reporter was detected, while the related retinoid-like compound induces luciferase expression.

CYP26A1 = CYP26A1 (Homo sapiens (Human), UniProt O43174); test: Cell-based inhibitor assay, [H]-RA metabolism in CYP26A1 stably transfected HeLa cells; conditions: for IC50: CYP26A1 transfected HeLa cells, 3 hours at 37° C., inhibition of all trans-RA metabolism, read-out: IC50 26A1; for inhibition of CYP26A1-mediated RA metabolism compared with ketoconazole (in words): see IC50 values in Table 2
Sequence of CYP26A1 (O43174 whole entry, species assumed): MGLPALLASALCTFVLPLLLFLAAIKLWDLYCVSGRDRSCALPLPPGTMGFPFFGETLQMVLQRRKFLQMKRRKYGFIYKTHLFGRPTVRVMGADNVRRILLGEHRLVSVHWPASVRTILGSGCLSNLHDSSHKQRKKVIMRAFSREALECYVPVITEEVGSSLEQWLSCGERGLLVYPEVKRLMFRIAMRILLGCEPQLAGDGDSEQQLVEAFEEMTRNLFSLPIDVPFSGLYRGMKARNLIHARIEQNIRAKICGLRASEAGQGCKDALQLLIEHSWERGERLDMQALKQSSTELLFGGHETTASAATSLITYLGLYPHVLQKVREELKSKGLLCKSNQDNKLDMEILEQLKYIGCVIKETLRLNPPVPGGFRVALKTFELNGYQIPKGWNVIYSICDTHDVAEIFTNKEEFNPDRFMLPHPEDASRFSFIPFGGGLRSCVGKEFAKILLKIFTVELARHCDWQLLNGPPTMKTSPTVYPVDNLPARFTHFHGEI
Description: (§1) CYP26A1 or CYP26B1 stably transfected HeLa cells were maintained in Minimum Essential Medium (MEM) containing 10% fetal bovine serum (FBS) and 100 μg/mL hygromycin. Exponentially growing cells were harvested by incubation in trypsin. Cells were then collected and re-plated in 48-well culture plates at 5×10^5 cells in 0.2 mL of culture medium containing 0.05 μCi [H]-RA in the presence or absence of increasing concentrations of a test compound. The test compounds were diluted in dimethyl sulfoxide (DMSO) and then added in duplicate to wells at 0.01, 0.1, 1, 10 and 100 μM final concentration. […] Cells were incubated for 3 hours at 37° C. Retinoids were then extracted using the procedure of Bligh, et al., (1959), Canadian Journal of Biochemistry 37, 911-917, which was modified by using dichloromethane instead of chloroform. Each sample's water soluble radioactivity level was quantified using a β-scintillation counter (using Ecolume scintillation fluid, available from MP Biomedicals of Solon, Ohio, USA).

CYP26B1 = CYP26B1 (Homo sapiens (Human), UniProt Q9NR63); test: Cell-based inhibitor assay, [H]-RA metabolism in CYP26B1 stably transfected HeLa cells; conditions: for IC50: read-out: IC50 26B1
Sequence of CYP26B1 (Q9NR63 whole entry, species assumed): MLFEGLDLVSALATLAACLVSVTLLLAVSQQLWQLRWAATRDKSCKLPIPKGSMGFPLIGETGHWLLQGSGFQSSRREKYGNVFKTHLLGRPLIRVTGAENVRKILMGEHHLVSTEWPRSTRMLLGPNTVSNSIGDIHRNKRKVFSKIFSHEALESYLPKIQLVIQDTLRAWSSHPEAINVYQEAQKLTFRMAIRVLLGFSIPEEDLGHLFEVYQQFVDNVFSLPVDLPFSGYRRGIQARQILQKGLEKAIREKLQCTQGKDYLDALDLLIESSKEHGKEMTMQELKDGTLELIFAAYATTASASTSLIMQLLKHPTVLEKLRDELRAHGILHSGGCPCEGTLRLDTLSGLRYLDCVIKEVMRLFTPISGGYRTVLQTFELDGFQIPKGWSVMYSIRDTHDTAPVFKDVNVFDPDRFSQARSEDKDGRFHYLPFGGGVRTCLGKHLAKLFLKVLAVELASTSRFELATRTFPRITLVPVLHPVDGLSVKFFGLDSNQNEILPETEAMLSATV
Description: as §1

[2] = CYP26B1 transfected HeLa cells, 3 hours at 37° C., inhibition of all trans-RA metabolism

Row | Compound | IC50 (CYP26A1) | IC50 (CYP26B1; [2]) | IC50 (CYP26B1) | Luciferase Activity RLU Avg ([1]; 0.1 μM) | Luciferase Activity RLU Avg ([1]; 1 μM) | Luciferase Activity RLU Avg ([1]; 10 μM) | inhibitory activity towards CYP26A1 (in words) (CYP26A1) | inhibition of CYP26A1-mediated RA metabolism compared with ketoconazole (in words) (CYP26A1) | inhibition of CYP26B1 enzyme (in words) (CYP26B1)
1 | C=C(Cc1ccc(NS(=O)(=O)c2cc3c(cc2Br)C(C)(C)CCC3(C)C)cc1)OC [Cmpd 04B] | 8.24 µM |  |  |  |  |  |  |  | 
2 | CCC(CC)(C(=O)O)c1ccc(NS(=O)(=O)c2ccc3c(c2)C(C)(C)CCC3(C)C)cc1 [Cmpd 17] | 38.7 µM | 0.29 µM |  | 0.023 RLU | 0.026 RLU | 0.038 RLU |  |  | 
3 | Cc1cc2c(c(C)c1C(=O)Nc1ccc(CC(=O)O)cc1)C(C)(C)CCC2(C)C [Cmpd 10] | 8.23 µM | 0.55 µM |  | 0.073 RLU | 0.076 RLU | 0.084 RLU |  |  | 
4 | Cc1cc2c(cc1S(=O)(=O)Nc1ccc(CC(=O)O)cc1)C(C)(C)CCC2(C)C [Cmpd 07] |  |  |  | 0.0016 RLU | 0.0019 RLU | 0.0011 RLU |  |  | 
5 | Cc1cc2c(cc1S(=O)(=O)Nc1ccc(C3(C(=O)O)CC3)cc1)C(C)(C)CCC2(C)C [Cmpd 13] | 6.2 µM | > 100 µM |  | 0.113 RLU | 0.07 RLU | 0.04 RLU |  |  | 
6 | Cc1cc2c(cc1S(=O)(=O)Nc1ccc(C(=O)O)cc1)C(C)(C)CCC2(C)C [Cmpd 14] | 28.4 µM | > 100 µM |  | 0.111 RLU | 0.125 RLU | 0.134 RLU |  |  | 
7 | C=C(Cc1ccc(NS(=O)(=O)c2ccc3c(c2)C(C)(C)CCC3(C)C)cc1)OC [Cmpd 04A] | 14 µM |  |  |  |  |  |  |  | 
8 | CC1(C)CCOc2ccc(C(=O)Nc3ccc(CC(=O)O)cc3)cc21 [Cmpd 05] | 39.7 µM | 11.5 µM |  |  |  |  |  |  | 
9 | C=C(Cc1ccc(NS(=O)(=O)c2ccc3c(c2)C(C)(C)CCC3(C)C)cc1F)OC [Cmpd 09A] | 80.5 µM |  |  |  |  |  |  |  | 

The next lines start with results.

Row | IC50 (CYP26A1) | IC50 (CYP26B1; [2]) | IC50 (CYP26B1) | Compound | Luciferase Activity RLU Avg ([1]; 0.1 μM) | Luciferase Activity RLU Avg ([1]; 1 μM) | Luciferase Activity RLU Avg ([1]; 10 μM) | inhibitory activity towards CYP26A1 (in words) (CYP26A1) | inhibition of CYP26A1-mediated RA metabolism compared with ketoconazole (in words) (CYP26A1) | inhibition of CYP26B1 enzyme (in words) (CYP26B1)
10 | 5.66 µM | 8.81 µM |  | CC1(C)CCC(C)(C)c2cc(C(=O)Nc3ccc(CC(=O)O)cc3)ccc21 [Cmpd 01] | 0.0041 RLU | 0.0053 RLU | 0.0077 RLU |  |  | 
11 | 0.741 µM | > 100 µM |  | Cc1cc2c(cc1S(=O)(=O)Nc1ccc(C(C(=O)O)C(C)C)cc1)C(C)(C)CCC2(C)C (stereo not shown) [Cmpd 19] | 0.0244 RLU | 0.019 RLU | 0.0076 RLU | selective inhibitory activity towards CYP26A1 | comparable to or better than ketoconazole | None of the above compounds inhibited the CYP26B1 enzyme
12 | 1.14 µM | 18.9 µM |  | CC1(C)CCC(C)(C)c2cc(S(=O)(=O)Nc3ccc(CC(=O)O)cc3)ccc21 [Cmpd 04] | 0.0046 RLU | 0.0035 RLU |  | selective inhibitory activity towards CYP26A1 | comparable to or better than ketoconazole | None of the above compounds inhibited the CYP26B1 enzyme
13 | 1.29 µM | 42.3 µM |  | CC(C)c1cc2c(cc1C(=O)Nc1ccc(CC(=O)O)cc1)C(C)(C)CCC2(C)C [Cmpd 06] | 0.0021 RLU | 0.002 RLU | 0.0018 RLU | selective inhibitory activity towards CYP26A1 | comparable to or better than ketoconazole | None of the above compounds inhibited the CYP26B1 enzyme
14 | 1.9 µM |  | 21.8 µM | Cc1cc(S(=O)(=O)Nc2ccc(CC(=O)O)cc2)cc2c1OC(C)(C)CC2(C)C [Cmpd 21] |  |  |  | selective inhibitory activity towards CYP26A1 | comparable to or better than ketoconazole | None of the above compounds inhibited the CYP26B1 enzyme
